Reference: the NIST ThermoML archive (doi:10.1021/je401026a)
Numbers after ± are expanded uncertainties.

Details: 298 K; Liquid; Gas chromatography

`CCCCC(CC)COP(=O)(Oc1ccccc1)Oc1ccccc1` (stereo unspecified) [2-ethylhexyl diphenyl phosphate] and `O=P(Oc1ccccc1)(Oc1ccccc1)Oc1ccccc1` [triphenyl phosphate] are within error of each other in “vapor or sublimation pressure” value: 8.9e-08 ± 6.3e-08 kPa for the first, 2.7e-07 ± 2e-07 kPa for the second.

`Cc1ccc(OP(=O)(Oc2ccc(C)cc2)Oc2ccc(C)cc2)cc1` [phosphoric acid, tri-p-cresyl ester] and `Cc1cccc(OP(=O)(Oc2cccc(C)c2)Oc2cccc(C)c2)c1` [tri-m-tolyl phosphate] are within error of each other in “vapor or sublimation pressure” value: 1.1e-08 ± 1.2e-08 kPa for the first, 2.1e-08 ± 1.8e-08 kPa for the second.

Going from `Cc1ccccc1OP(=O)(Oc1ccccc1C)Oc1ccccc1C` [tri-2-tolyl phosphate] to `CC(C)c1ccccc1OP(=O)(Oc1ccccc1C(C)C)Oc1ccccc1C(C)C` [tris(2-(1-methylethyl)-phenol) phosphate], the “vapor or sublimation pressure” value falls from 5.1e-08 ± 2.6e-08 kPa to 6e-09 ± 9e-09 kPa.

Compared with `O=P(OC(CCl)CCl)(OC(CCl)CCl)OC(CCl)CCl` [tris(1,3-dichloro-2-propanol) phosphate], `CC(CCl)OP(=O)(OC(C)CCl)OC(C)CCl` (stereo unspecified) [tris(1-chloro-2-propyl) phosphate] is higher in “vapor or sublimation pressure” value: 4.1e-07 ± 2.8e-07 kPa for the first, 3.5e-05 ± 1.7e-05 kPa for the second.

`CCCCOCCOP(=O)(OCCOCCCC)OCCOCCCC` [tris(2-butoxyethyl) phosphate] and `CCCCC(CC)COP(=O)(OCC(CC)CCCC)OCC(CC)CCCC` (stereo unspecified) [tris(2-ethylhexyl) phosphate] are within error of each other in “vapor or sublimation pressure” value: 4.9e-08 ± 3.8e-08 kPa for the first, 2.1e-08 ± 1.8e-08 kPa for the second.

With `O=P(OCCCl)(OCCCl)OCCCl` [tris(2-chloroethyl) phosphate] the “vapor or sublimation pressure” value was 4.8e-05 ± 2.2e-05 kPa.
